Test system: Bovine aortic endothelial cells (BAECs)
Test: Shear stress-induced NO production by endothelial cells in the two-compartment flow chamber, NO electrode measurement
Format: cell-based
Settings: 1 mM L-NAME
Description: Bovine aortic endothelial cells (BAECs) were cultured in Dulbecco's modified Eagle's medium (Mediatech Cellgro), supplemented with 10% fetal bovine serum (Sigma), 2 mmol/l L-glutamine (Mediatech Cellgro), and penicillin-streptomycin (Mediatech Cellgro). The cells were grown to confluency and subsequently plated onto the lower surface of individual polyester Transwell® membranes (Corning Transwell Permeable Supports having a 24 mm diameter culture area with 3 μm pores). The Transwell® membranes were then placed in an incubator overnight, inverted and cultured for 1 day before conducting the experimental study. The Transwell® membranes were subsequently washed 3 three times with a solution of Dulbecco's Phosphate Buffered Saline (PBS) with calcium/magnesium (Sigma) supplemented with 70 μM L-arginine (L-arg) (Sigma) and inserted into the flow chamber.
The flow chamber included an electrode and equipment for measuring NO (TBR4100 4-channel Free Radical Analyzer and 200 μm diameter mini sensors for NO measurements ISO-NOPF). The electrodes were frequently recoated with nafion (Sigma) and re-calibrated during the experimental study to improve selectivity. The recoating process involved at least two dip/dry sessions. The electrodes were calibrated by the decomposition of a NO donor S-nitroso-N-acetyl-penicillamine (SNAP) using Cu(II). The SNAP was prepared by dissolving 5 mg EDTA and 5.0 mg+/−2.0 mg of SNAP in 250 mL HPLC grade water. The electrode was immersed in 12 mL of 0.1 M copper(II) sulfate in distilled water for about 1 to about 2 hours until the electrode stabilized. Aliquots of SNAP were sequentially added in an amount of about 10 μL, 20 μL, 40 μL, 80 μL after each signal reached a plateau. A multipoint calibration plot was created using Data-Trax software (produced by WPI). The sampling rate was 10 samples/s. The change in recorded potential was converted to corresponding molarities of NO produced by SNAP addition. The efficiency of the conversion of SNAP to NO was 0.6. Electrode sensitivity was at least about 10 pA/nM. […] The temperature probe supplied by WPI was pre-scaled using a two-point entry of known temperatures (0.03125V=1° C., 0.625V=20° C.).
The dimensions (in cm) of the flow channel were about: 4.57 W×12.19 L×0.025 H. The flow inlet and outlet had large reservoirs with sampling ports. A glass coverslip covered an opening in the bottom plate, allowing visualization of the cell layer and the electrode on an inverted microscope. As shown in FIGS. 5-6, endothelial cells were grown on the lower surface of a Transwell® porous membrane, which fit into the flow chamber flush with the upper plate of the flow chamber. […] Below the Transwell® membrane, fluid flowed through the parallel plate channel that defined the lower compartment, exposing the endothelial cells to uniform shear stress. Above the Transwell® membrane, a stagnant upper fluid compartment, having a small volume housed the NO electrode and temperature sensor. This design placed the electrode out of the fluid flow avoiding problems associated with potential flow sensitivities, flow disturbances and chamber leaking at the electrode insertion site. Furthermore, due to the small volume and zero flux condition at the other boundaries of the stagnant upper fluid compartment and the short diffusion distance through the membrane, the concentration of NO in the upper fluid compartment was nearly uniform and rapidly equilibrated with the concentration in the cell layer. The electrode was lowered into the upper compartment of the flow chamber until it rested on the surface of the Transwell® membrane at a fixed distance from the ECs of about 10 μm equal to the thickness of the membrane. This configuration allowed the NO generated by the cells to be measured abluminally from the endothelial cell layer. Due to the temperature sensitivity of the NO electrode, the flow chamber was enclosed in a water bath at 37° C. in order to prevent heat loss and temperature fluctuations. […]

## COC(=O)[C@@H](N)CCCNC(=N)N[N+](=O)[O-] [L-NAME, Nω-Nitro-L-arginine methyl ester]
L-arg also in perfusate, shear stress change 0.1 to 20 dyn/cm^2, hyperbolic model fit
  RNO (NO production rate) as % of RNO estimated from untreated ECs, hyperbolic model: about 57.6%
L-arg also in perfusate, shear stress change 0.1 to 20 dyn/cm^2, linear model fit
  RNO (NO production rate) as % of RNO estimated from untreated ECs, linear model: about 57.3%
L-arg also in perfusate, shear stress change 0.1 to 20 dyn/cm^2, sigmoidal model fit
  RNO (NO production rate) as % of RNO estimated from untreated ECs, sigmoidal model: about 58.3%
pH 7.2, step changes from 0.1 dyn/cm^2 to 1, 6, 10 or 20 dyn/cm^2, vs before treatment, FIG. 10
  reduction of steady-state NO concentration changes in response to shear stress step changes after treatment with L-NAME: 40%
flow-induced shear stress stimulation
  effect on shear stress-induced NO concentration changes (Example 1, in words): partially attenuated
Shear stress step changes from 0.1 dyn/cm^2, FIG. 10
  steady-state NO concentration changes after treatment, as % of the untreated values (average): 60%
Step changes from about 1 to about 5 and about 1 to about 10 dyn/cm^2
  effect on flow induced NO response (Example 2): significantly reduced

Source: patent US9535058B2, “Flow chamber analyte detection method” (Drexel University, priority 2010, dated 2017)
